# Test results from ChEMBL document CHEMBL3352801, “Synthesis and lipid-lowering evaluation of 3-methyl-1H-purine-2,6-dione derivatives as potent and orally available anti-obesity agents” (Eur J Med Chem, 2014).
# Tests used:
# Mus musculus [1] = assay: Toxicity in diet-induced obese C57Bl/6 mouse assessed as change in food intake at 150 mg/kg/day, po for 4 weeks administered with high-fat diet; type: organism-based; design: route oral; conditions: in vivo, 672 h
# Mus musculus [2] = assay: Toxicity in diet-induced obese C57Bl/6 mouse assessed as change in ALT level at 150 mg/kg/day, po for 4 weeks administered with high-fat diet (reference value: 33.00 +/- 18.23 U/L); type: organism-based; design: route oral; conditions: in vivo, 672 h
# Mus musculus [3] = assay: Toxicity in diet-induced obese C57Bl/6 mouse assessed as change in AST level at 150 mg/kg/day, po for 4 weeks administered with high-fat diet (reference value: 125.00 +/- 35.00 U/L); type: organism-based; design: route oral; conditions: in vivo, 672 h
# Mus musculus [4] = assay: Toxicity in diet-induced obese C57Bl/6 mouse assessed as change in ALT level at 150 mg/kg/day, po for 4 weeks administered with high-fat diet (reference value: 29.6 +/- 8.29 U/L); type: organism-based; design: route oral; conditions: in vivo, 672 h
# Mus musculus [5] = assay: Toxicity in diet-induced obese C57Bl/6 mouse assessed as change in AST level at 150 mg/kg/day, po for 4 weeks administered with high-fat diet (reference value: 128.00 +/- 20.59 U/L); type: organism-based; design: route oral; conditions: in vivo, 672 h
# 3T3-L1 = assay: Inhibition of triglyceride accumulation in mouse 3T3L1 cells at 10 uM after 24 hrs; type: functional; conditions: 3T3-L1, 24 h
# Rattus norvegicus [6] = assay: Acute toxicity in Sprague-Dawley rat assessed as clinical signs at 2.5 g/kg, po as single dose measured after 7 days; type: organism-based; conditions: in vivo, 2500 mg/kg, 168 h
# Rattus norvegicus [7] = assay: Acute toxicity in Sprague-Dawley rat assessed as change in body weight at 2.5 g/kg, po as single dose measured after 7 days; type: organism-based; conditions: in vivo, 2500 mg/kg, 168 h
# Rattus norvegicus [8] = assay: Acute toxicity in Sprague-Dawley rat assessed as mortality at 2.5 g/kg, po as single dose measured after 7 days; type: organism-based; conditions: in vivo, 2500 mg/kg, 168 h
# Mus musculus [9] = assay: Antiobesity activity in diet-induced obese C57Bl/6 mouse assessed as reduction in body weight at 50 mg/kg/day, po for 4 weeks administered with high-fat diet; type: functional; design: scale not given: the % may be the effect or the level left
# Mus musculus [10] = assay: Toxicity in diet-induced obese C57Bl/6 mouse assessed as change in food intake at 50 mg/kg/day, po for 4 weeks administered with high-fat diet; type: organism-based; design: route oral; conditions: in vivo, 672 h
# Mus musculus [11] = assay: Antiobesity activity in diet-induced obese C57Bl/6 mouse assessed as loss of liver weight at 50 mg/kg/day, po for 4 weeks administered with high-fat diet; type: functional
# Mus musculus [12] = assay: Antiobesity activity in diet-induced obese C57Bl/6 mouse assessed as loss of epididymal fat mass at 50 mg/kg/day, po for 4 weeks administered with high-fat diet; type: functional
# Mus musculus [13] = assay: Increase in glucose tolerance in diet-induced obese C57Bl/6 mouse assessed as time required for reducing plasma glucose to initial state at 50 mg/kg/day, po for 4 weeks by oral glucose tolerance test; type: functional
# Mus musculus [14] = assay: Increase in glucose tolerance in diet-induced obese C57Bl/6 mouse assessed as rate of reducing plasma glucose at 50 mg/kg/day, po for 4 weeks by oral glucose tolerance test; type: functional
# Mus musculus [15] = assay: Antiobesity activity in diet-induced obese C57Bl/6 mouse assessed as reduction in fasting blood glucose at 50 mg/kg/day, po for 4 weeks administered with high-fat diet (reference value: 5.0 +/- 1.30 mM); type: functional
# Mus musculus [16] = assay: Antiobesity activity in diet-induced obese C57Bl/6 mouse assessed as change in insulin level at 50 mg/kg/day, po for 4 weeks administered with high-fat diet (reference value: 11.85 +/- 2.6 mU); type: functional
# Mus musculus [17] = assay: Toxicity in diet-induced obese C57Bl/6 mouse assessed as change in ALT level at 50 mg/kg/day, po for 4 weeks administered with high-fat diet (reference value: 33.00 +/- 18.23 U/L); type: organism-based; design: route oral; conditions: in vivo, 672 h
# Mus musculus [18] = assay: Toxicity in diet-induced obese C57Bl/6 mouse assessed as change in AST level at 50 mg/kg/day, po for 4 weeks administered with high-fat diet (reference value: 125.00 +/- 35.00 U/L); type: organism-based; design: route oral; conditions: in vivo, 672 h
# Mus musculus [19] = assay: Antiobesity activity in diet-induced obese C57Bl/6 mouse assessed as reduction in triglyceride level at 50 mg/kg/day, po for 4 weeks administered with high-fat diet (reference value: 0.93 +/- 0.09 mM); type: functional
# Mus musculus [20] = assay: Antiobesity activity in diet-induced obese C57Bl/6 mouse assessed as reduction in LDL level at 50 mg/kg/day, po for 4 weeks administered with high-fat diet (reference value: 0.14 +/- 0.07 mM); type: functional
# Mus musculus [21] = assay: Antiobesity activity in diet-induced obese C57Bl/6 mouse assessed as increase in HDL level at 50 mg/kg/day, po for 4 weeks administered with high-fat diet (reference value: 0.60 +/- 0.17 mM); type: functional
# Mus musculus [22] = assay: Antiobesity activity in diet-induced obese C57Bl/6 mouse assessed as reduction in FFA level at 50 mg/kg/day, po for 4 weeks administered with high-fat diet (reference value: 19.55 +/- 1.57 ng/L); type: functional
# Mus musculus [23] = assay: Antiobesity activity in diet-induced obese C57Bl/6 mouse assessed as reduction in HOMA-IR value at 50 mg/kg/day, po for 4 weeks administered with high-fat diet (reference value: 3.06 +/- 0.85 no_unit); type: functional
# Mus musculus [24] = assay: Antiobesity activity in diet-induced obese C57Bl/6 mouse assessed as reduction in hepatic triglyceride level at 50 mg/kg/day, po for 4 weeks administered with high-fat diet by Oil Red O staining-based histological method; type: functional; design: scale not given: the % may be the effect or the level left
# [25] = Cmax in Sprague-Dawley rat at 5 mg/kg, iv; type: ADME, organism-based; design: dose 5 mg/kg, route intravenous; conditions: in vivo
# [26] = Tmax in Sprague-Dawley rat at 5 mg/kg, iv; type: ADME, organism-based; design: dose 5 mg/kg, route intravenous; conditions: in vivo
# [27] = Half life in Sprague-Dawley rat at 5 mg/kg, iv; type: ADME, organism-based; design: dose 5 mg/kg, route intravenous; conditions: in vivo
# [28] = AUC (0 to t) in Sprague-Dawley rat at 5 mg/kg, iv; type: ADME, organism-based; design: dose 5 mg/kg, route intravenous; conditions: plasma
# [29] = Volume of distribution in Sprague-Dawley rat at 5 mg/kg, iv; type: ADME, organism-based; design: dose 5 mg/kg, route intravenous; conditions: in vivo
# [30] = Total clearance in Sprague-Dawley rat at 5 mg/kg, iv; type: ADME, organism-based; design: dose 5 mg/kg, route intravenous; conditions: in vivo
# [31] = Cmax in Sprague-Dawley rat at 20 mg/kg, po; type: ADME, organism-based; design: dose 20 mg/kg, route oral; conditions: in vivo
# [32] = Tmax in Sprague-Dawley rat at 20 mg/kg, po; type: ADME, organism-based; design: dose 20 mg/kg, route oral; conditions: in vivo
# [33] = Half life in Sprague-Dawley rat at 20 mg/kg, po; type: ADME, organism-based; design: dose 20 mg/kg, route oral; conditions: in vivo
# [34] = AUC (0 to t) in Sprague-Dawley rat at 20 mg/kg, po; type: ADME, organism-based; design: dose 20 mg/kg, route oral; conditions: plasma
# Rattus norvegicus [35] = assay: Volume of distribution in Sprague-Dawley rat at 20 mg/kg, po; type: ADME, organism-based; design: dose 20 mg/kg, route oral; conditions: in vivo
# [36] = Total clearance in Sprague-Dawley rat at 20 mg/kg, po; type: ADME, organism-based; design: dose 20 mg/kg, route oral; conditions: in vivo
# [37] = Oral bioavailability in Sprague-Dawley rat at 20 mg/kg; type: ADME, organism-based; conditions: in vivo
# [38] = Solubility of the compound at room temperature; type: physicochemical
compound,measurement,setting,value
CN(C)C(=N)N=C(N)N [METFORMIN],Activity,Mus musculus [1],Non-toxic
same,Activity,Mus musculus [2],21.67 U/L
same,Activity,Mus musculus [3],110 U/L
same,Activity,Mus musculus [4],46.29 U/L
same,Activity,Mus musculus [5],172 U/L
CCn1c(-c2ccc(OCCN(C)c3ccccn3)cc2)nc2c1c(=O)n(Cc1ccccc1C#N)c(=O)n2C,inhibition at 10 µM,3T3-L1,64.5%
same,Activity,Rattus norvegicus [6],Non-toxic
same,Activity,Rattus norvegicus [7],Non-toxic
same,Activity,Rattus norvegicus [8],Non-toxic
same,Activity,Mus musculus [9],15.96%
same,Activity,Mus musculus [10],Non-toxic
same,Activity,Mus musculus [11],16.8%
same,Activity,Mus musculus [12],21.65%
same,Time,Mus musculus [13],>40 min
same,Activity,Mus musculus [14],>2 %/min
same,Activity,Mus musculus [15],5.15 mM
same,Activity,Mus musculus [16],13.35 mU
same,Activity,Mus musculus [17],20 U/L
same,Activity,Mus musculus [18],120 U/L
same,Activity,Mus musculus [19],1.02 mM
same,Activity,Mus musculus [20],0.11 mM
same,Activity,Mus musculus [21],1.96 mM
same,Activity,Mus musculus [22],22.67 ng/L
same,Activity,Mus musculus [23],3.06
same,Activity,Mus musculus [24],7.17%
same,Cmax,[25],342 ng/mL
same,Tmax,[26],4.98 min
same,half-life,[27],8.83 h
same,AUC(0-t),[28],404 ng·h/mL
same,Vd,[29],142 L/kg
same,clearance,[30],189 mL/min/kg
same,Cmax,[31],54.4 ng/mL
same,Tmax,[32],2.27 h
same,half-life,[33],6.3 h
same,AUC(0-t),[34],453 ng·h/mL
same,Vd,Rattus norvegicus [35],416.501 L/kg
same,CL/F,[36],1030 mL/min/kg
same,bioavailability,[37],28%
same,solubility,[38],1000 µg/mL
